Tests used:
Experiment in all cases: MIC, microtitration in TSB, in vitro antibacterial screening
Type in all cases: cell-based
Pseudo. aerug. 130 = settings: Pseudomonas aeruginosa, Pseudo. aerug. 130, gentamicin resistant
From the text: (§1) They show activity when tested by well-recognized in vitro anti-bacterial screening procedures.
^c Gentamicin resistant

Serr. marcescens IMM-5 = settings: Serratia marcescens, IMM5
From the text: as §1

Pseudo. aerug. VAD12-7-7 = settings: Pseudomonas aeruginosa
From the text: as §1

Pseudo. aerug. No. 28 = settings: Pseudomonas aeruginosa
From the text: as §1

Pseudo. aerug. 733 = settings: Pseudomonas aeruginosa
From the text: as §1

Klebs. pneumoniae MGH-1 = settings: Klebsiella pneumoniae, MGH1
From the text: as §1

Pseudo. aerug. Aquilar = settings: Pseudomonas aeruginosa, butirosin resistant
From the text: as §1

Entero. cloacae IMM-50 = settings: Enterobacter cloacae, IMM50
From the text: as §1

Pseudo. aerug. LA-3399 = settings: Pseudomonas aeruginosa
From the text: as §1

Pseudo. aerug. UI-18 = settings: Pseudomonas aeruginosa
From the text: as §1

Staph auretis S18713 = settings: Staph auretis S18713, butirosin resistant
From the text: as §1

Pseudo. aerug. 74C-1 = settings: Pseudomonas aeruginosa
From the text: as §1

Pseudo. aerug. 58.38 = settings: Pseudomonas aeruginosa
From the text: as §1

Pseudo. aerug. G-76 = settings: Pseudomonas aeruginosa, Pseudo. aerug. G-76, butirosin and gentamicin resistant
From the text: as §1
(§2) ^b Butirosin and Gentamicin resistant

Esch. coli JR-76.2 = settings: Escherichia coli, JR76.2
From the text: as §1, §2

Measured: MIC

NCC[C@H](O)C(=O)N[C@@H]1C[C@H](N)[C@@H](O[C@H]2O[C@H](CN)[C@@H](O)C[C@H]2N)[C@H](O[C@@H]2O[C@H](CN)[C@H](O)[C@H]2O)[C@H]1O [I carbonate, 5"-amino-3',5"-dideoxybutirosin A]
25 mg/L: Serr. marcescens IMM-5 | Esch. coli JR-76.2
1.6 mg/L: Pseudo. aerug. No. 28
6.3 mg/L: Pseudo. aerug. 130 | Klebs. pneumoniae MGH-1 | Entero. cloacae IMM-50
12.5 mg/L: Pseudo. aerug. Aquilar | Pseudo. aerug. LA-3399 | Pseudo. aerug. G-76
3.1 mg/L: all other assays above

Reference: patent US3970643A, “5"-Amino-3',5"-dideoxybutirosin A and derivatives” (Parke, Davis & Company, priority 1975, dated 1976)
